According to US20230364204A1, “Bioactive Peptides, Compositions, Production Process, and Use of Bioactive Peptides as Anti-Tumoral Agents” (priority 2022, published 2023):

Key:
MDAMB231 cells [1] = experiment: BrdU cellular proliferation, tumor cells; assay type: cell-based; details: MDAMB231, 24 h, 0.2 µg/mL (minimum decrease)
Protocol: (§1) The method of Bomodeoxyuridine (BrdU) quantification was carried out according to the Standard Operational Protocols Nos. 10 and 12 of the Laboratory of Clinical Cytology of the Faculty of Pharmaceutical Sciences of Ribeirao Preto (FCFRP -USP). In this method, for the BrdU quantification, cells were plated in 96-well sterile plates for cell culture with a cap at the density of 2 × 10^4 cells/well for treatments lasting 24 h and 1 × 10^4 cells/well for treatments with 48 h or more, completing the volume to 100 µL with culture medium. The plates were incubated for 8-16 h in an incubator at 37° C. and 5% CO2. The next day, the treatments were prepared in culture medium, applying 200 µL/well at the desired concentration, and the plates were placed in an incubator at 37° C. and 5% CO2 for the duration of treatment. After the treatment period, 20 µL/well of a BrdU-labeling was added and incubated at 37° C. and 5% CO2 for 2.5 h. After incubation with BrdU labeling, the plates were stored at 2-4° C. up to 1 week. […] Substrate was developed for 15 minutes and reaction was stopped with HCl 6 M solution and read in a spectrophotometer at 495 nm with endpoint.
(§2) The calculation of cell proliferation was performed using the formula: […]
(§3) O.D.: optical density captured by spectrophotometer NOTE: The Basal O.D. is the one found in the blank wells. […]

[2] = system: MDA-MB-231 cells implanted in zebrafish larvae; experiment: Zebrafish xenograft model of MDAMB231 (primary tumor and metastasis); assay type: in vivo
Protocol: Transgenic Tg(fli1:EGFP)y1 zebrafish embryos were raised at 28° C. for 48 hours in E3 embryo medium 0.2 mM 1-Phenyl-2-Thiourea aka PTU. […] MDA-MB-231 cells were labeled with Dil red fluorescent dye. Approximately 700 Dil Labeled cancer cells were subcutaneously co-implanted into the perivitelline space of 2 days old larvae ± 3-NantC peptide at […]. Larvae in which tumor cells had been inadvertently injected into circulation or larvae with erroneous implantation of the tumor in the yolk rather than the perivitelline space were excluded from the study. Selected tumor bearing embryos were sorted into experimental groups (20 embryos/group), and pictures of primary tumors were taken right after injection. Doxorubicin treatment was added to embryo water at 2.5 µg/mL according to the study plan. Tumor-bearing embryos were incubated in E3/PTU medium for 72 h at 36° C. After incubation, pictures of the primary tumors and the CVP were taken using a red fluorescent filter. Larvae that died or were lost by other means during the study were excluded from the final analysis.
Images obtained right after implantation (day 0) and after 72 h incubation (day 3) were analyzed by using in-house developed software. Tumor growth regression was calculated and normalized to the negative control group. The number of metastasized cells was counted manually. One-way ANOVA was performed followed by two-tailed Student’s t-test. Definitive outliers were detected using the ROUT method with a Q=1%. Graphs and example images, and experimental data were obtained/analyzed by using GraphPad Prism v9.0.2.

HDFa benign cell line = experiment: BrdU cellular proliferation, benign cells; assay type: cell-based; details: maximum time of exposure
Protocol: as §1, §2, §3

MDAMB231 cells [3] = experiment: MTT with or without autophagy inhibitor 3-methyladenine (3-MA); assay type: cell-based
Protocol: The 3-Methyladenine (3-MA) is an autophagy inhibitor (blocks the activation of this mechanism of action). For molecules that trigger autophagy as a cell death mechanism when this pathway is blocked the molecule loses action.
The MTT method was carried out as previously described herein, comparing the effect of 3-NAntC with or without 3-Methyladenine (3-MA).
In order to determine the effects of the peptide in LDH release, autophagy induction and apoptosis/necrosis profile of MDAMB231 cell line, the Analysis of Variance (ANOVA) with Dunnet and Bonferroni post-hoc tests were applied to the significance of 5% in GraphPad Prism software version 6.0.

[4] = system: Rho-GTPases (Rho-A, Rho-C), protein elongation mechanism; experiment: Proteomics analysis; assay type: cell-based; details: data not shown
MDAMB231 cell line = experiment: Cell cycle progression (propidium iodide flow cytometry); assay type: cell-based; details: MDAMB231, 48 h, highest dosage
Protocol: For cell cycle progression method, cells were plated in 6-well sterile plates for cell culture with a cap at the density of 2.5 × 10^5 cells/well for treatments lasting 24 h or more, completing the volume with 1000 µL culture medium. The plates were incubated for 8-16 h in an incubator at 37° C. and 5% CO2. The next day, the treatments were prepared in culture medium, applying 2000 µL/well at the desired concentration, and the plates were placed in an incubator at 37° C. and 5% CO2 for the duration of treatment. After the treatment period, cells were collected in a conic 15 mL tube and washed with 1000 µL of PBS (1×). Cells were resuspended in 500 µL/tube of PBS (1×) and 4.5 mL of Ethanol 70°. Then, tubes were closed and kept at 2-4° C. for up to 2 months. Cells were washed with PBS (1×) and resuspended with 135 µL of PBS (1×). A solution of RnaseA at 100 µg/mL was added and incubated at RT for 30 minutes. After incubation, cells were labeled with 2 µL of Propidium Iodide at 100 µg/mL and read at the flow cytometer for size and DNA content.
In order to determine the effects of the peptide in cell cycle progression (MDAMB231 cell line), the Analysis of Variance (ANOVA) with Dunnet post-hoc test was applied to the significance of 5% in GraphPad Prism software version 6.0.

SMILES: CSCC[C@H](N)C(=O)N[C@@H](Cc1ccccc1)C(=O)N[C@@H](Cc1ccc(O)cc1)C(=O)N1CCC[C@H]1C(=O)N[C@@H](CC(=O)O)C(=O)N[C@@H](CO)C(=O)N[C@@H](CCCNC(=N)N)C(=O)N[C@@H](CS)C(=O)N[C@@H](CCCNC(=N)N)C(=O)NCC(=O)N1CCC[C@H]1C(=O)N[C@@H](CO)C(=O)N[C@@H](CCC(=O)O)C(=O)N[C@H](C(=O)O)[C@@H](C)O [3-NAntC, [H]-MFYPDSRCRGPSET-[OH]]
- decrease of proliferation rate (BrdU) (MDAMB231 cells [1]): 33%
- decrease of metastatic cells ([2]; 75 and 125 mg/mL): about 60%
- decrease of tumor cells (primary tumor) ([2]; 72 h, 3-NantC co-implanted at 75, 100 or 125 mg/mL, Doxorubicin 2.5 µg/mL in embryo water): 75%
- decrease in metastatic cells ([2]; very low concentrations (FIG. 17)): about 40%
- effect on proliferation of benign cells (BrdU) (HDFa benign cell line): did not alter the proliferation
- activity with and without the autophagy inhibitor 3-MA (MTT) (MDAMB231 cells [3]): remains the same
- Rho-GTPases expression (e.g. Rho-A and Rho-C) [4]: diminished
- protein elongation mechanism [4]: continuously disabling
- decrease in cells in G0/G1 (MDAMB231 cell line): 8.72%
- increase of G2/M percentage (MDAMB231 cell line): 8.08%
